± gives the standard deviation of the reports.
| Compound | glass transition temperature [°C] |
| --- | --- |
| *C(=O)Nc1ccc(Oc2ccc(C3(c4ccc(Oc5ccc(NC(=O)c6ccc7c(c6)C(=O)N(c6ccc(Oc8ccc(S(=O)(=O)c9ccc(Oc%10ccc(N%11C(=O)c%12ccc(*)cc%12C%11=O)cc%10)cc9)cc8)cc6)C7=O)cc5)cc4)NC(=O)c4ccccc43)cc2)cc1 (repeat unit) | 283.00 |
| *c1ccc(-c2ccc(N3C(=O)c4ccc(Oc5ccc(Oc6ccc7c(c6)C(=O)N(*)C7=O)cc5)cc4C3=O)c(OC)c2)cc1OC (repeat unit) | 274.00 |
| *O[Si](*)(C)CCCCCCCCCCC(=O)Oc1ccc(-c2ccc(OC(=O)c3ccc(OCC(C)CC)cc3)cc2)cc1 (repeat unit) | 29.20 |
| *Oc1ccc(/C(=C/c2ccc(-c3ccc(/C=C(\c4ccccc4)c4ccc(OC(=O)CCCCCCCCC(*)=O)cc4)cc3)cc2)c2ccccc2)cc1 (repeat unit) | 111.00 |
| *c1ccc(/C=N/c2ccc(C(c3ccccc3)c3ccc(/N=C/c4ccc(-c5ccc(*)s5)cc4)cc3)cc2)cc1 (repeat unit) | 129.00 |
| *Oc1ccc(C(c2ccc(Oc3ccc(C(=O)C(=O)c4ccc(*)cc4)cc3)cc2)(C(F)(F)F)C(F)(F)F)cc1 (repeat unit) | 162.00 |
| *=Nc1cccc(S(=O)(=O)c2cccc(/N=C3/OC(=O)c4ccc(Oc5ccc6c(c5)C(=O)OC6=*)cc43)c2)c1 (repeat unit) | 190.00 |
| *CC[CH2][Sn]([CH3])([CH3])[CH2]CCOC(=O)C(CCCCCCCCOc1ccc(-c2ccc(OCc3ccc(C#N)cc3)cc2)cc1)C(=O)O* (repeat unit) | 22.00 |
| *C(=O)c1ccc2c(c1)C(=O)N(c1ccc(Cc3ccc(C(=O)c4ccc(N5C(=O)c6ccc(*)cc6C5=O)cc4)cc3)cc1)C2=O (repeat unit) | 307.00 |
| *CCOCCC(=O)O* (repeat unit) | -35.00 |
| *OC(=O)OCCOCCOCCOCCOC(=O)OC1COC2C(*)COC12 (repeat unit) | 9.50 |
| *CCCCO* (repeat unit) [Poly(tetramethylene glycol)] | -83.6 ± 2.2 |
| *c1ccc(Cc2ccc(-n3c(=O)c4cc5c(=O)n(*)c(=O)c5cc4c3=O)c(C(C)(C)C)c2)cc1C(C)(C)C (repeat unit) | 217.00 |
| *c1cccc(Cc2cccc(N3C(=O)c4ccc([Si](C)(C)O[Si](C)(C)O[Si](C)(C)c5ccc6c(c5)C(=O)N(*)C6=O)cc4C3=O)c2)c1 (repeat unit) | 208.00 |
| *Nc1ccc(C(c2ccc(NC(=O)c3cc(C(*)=O)cc(C(C)(C)C)c3)cc2)(P2(=O)Oc3ccccc3-c3ccccc32)P2(=O)Oc3ccccc3-c3ccccc32)cc1 (repeat unit) | 235.00 |
| *c1ccc(C2C3C(=O)N(c4ccc(N5C(=O)C6ON(C)C(*)C6C5=O)cc4)C(=O)C3ON2C)cc1 (repeat unit) | 67.00 |
| *C1OCCCC1C1C(=O)OC(=O)C1* (repeat unit) | 210.00 |
| *SC1CCCCC1* (repeat unit) | -43.00 |
| */C(Cl)=C(/*)CCCC (repeat unit) | 190.00 |
| *C(=O)Nc1ccc(S(=O)(=O)c2ccc(NC(=O)c3ccc4c(c3)C(=O)N(c3ccc(-c5sc(-c6ccc(N7C(=O)c8ccc(*)cc8C7=O)cc6)c(-c6ccccc6)c5-c5ccccc5)cc3)C4=O)cc2)cc1 (repeat unit) | 340.00 |
| *CC(*)c1ccc(COc2ccc(-c3ccc(-c4ccc(C)s4)c4nsnc34)cc2)cc1 (repeat unit) | 130.00 |
| *c1ccc2c(c1)C(=O)N(c1ccc(Cc3ccc(N4C(=O)c5ccc(C(*)(C(F)(F)F)C(F)(F)F)cc5C4=O)c(C(C)(C)C)c3)cc1C(C)(C)C)C2=O (repeat unit) | 274.00 |

| Compound | glass transition temperature [°C] |
| --- | --- |
| *Oc1ccc(C(C)(c2ccccc2)c2ccc(OC(=O)c3cccc(C(*)=O)c3)cc2)cc1 (repeat unit) | 202.00 |
| *c1ccc(Sc2ccc(Sc3ccc(Sc4ccc(-n5c(=O)c6cc7c(=O)n(*)c(=O)c7cc6c5=O)cc4)cc3)cc2)cc1 (repeat unit) | 234.1 |
| *Oc1ccc(C(=O)NNC(=O)c2ccc(C(=O)NNC(=O)c3ccc(OC(=O)c4cccc(C(*)=O)c4)cc3)cc2Oc2ccccc2)cc1 (repeat unit) | 160.00 |
| *CC(*)C(=O)OCCOC (repeat unit) | -34.00 |
| *CCCCCCCCCCC(=O)Nc1ccc(Cc2ccc(NC(=O)CCCCCCCCCCN3C(=O)c4ccc(C(=O)c5ccc6c(c5)C(=O)N(*)C6=O)cc4C3=O)cc2)cc1 (repeat unit) | 136.00 |
| *c1ccc(Oc2ccc(C(=O)c3ccc(Oc4ccc(C(=O)c5ccc(Oc6ccc(-c7nc(-c8ccc(-c9nc(*)c(-c%10ccccc%10)[nH]9)cc8)[nH]c7-c7ccccc7)cc6)cc5)cc4)cc3)cc2)cc1 (repeat unit) | 245.00 |
| *c1ccc2oc(-c3ccc(C(c4ccc(-c5nc6cc(C(*)(c7ccccc7)C(F)(F)F)ccc6o5)cc4)(C(F)(F)F)C(F)(F)F)cc3)nc2c1 (repeat unit) | 334.00 |
| *OC(=O)/C=C/C(=O)OC1COC2C(*)COC12 (repeat unit) | 60.00 |
| *CCCCOC(=O)Nc1ccc(C)c(NC(=O)OCCCCn2c3ccccc3c3cc(/C=C(\C#N)C(=O)OCCCCCCOC(=O)/C(C#N)=C/c4ccc5c(c4)c4ccccc4n5*)ccc32)c1 (repeat unit) | 117.00 |
| *CC(*)(C)C(=O)OCc1c(Cl)cccc1Cl (repeat unit) | 58.90 |
| *Oc1ccc(S(=O)(=O)c2ccc(Oc3ccc(NC(=O)c4cccc(C(=O)Nc5ccc(*)cc5)c4)cc3)cc2)cc1 (repeat unit) | 260.00 |
| *CC(*)c1ccc(C)cc1 (repeat unit) [Poly(p-methyl styrene) ] | 101 ± 1.6 |
| *c1ccc(Oc2ccc(Oc3ccc(N4C(=O)c5ccc(-c6ccc7c(c6)C(=O)N(*)C7=O)cc5C4=O)cc3)c(-c3ccccc3)c2)cc1 (repeat unit) | 247.00 |
| *c1ccc(Oc2ccc(C(=O)c3ccc4cc(C(=O)c5ccc(Oc6ccc(-c7nc(-c8ccccc8)[nH]c7*)cc6)cc5)ccc4c3)cc2)cc1 (repeat unit) | 248.00 |
| *CC(*)OC(=O)C(C)(C)C(C)(C)CC (repeat unit) | 90.00 |
| *CCCOC(=O)OCCCCCCOC(=O)OCCCN1C(=O)c2ccc(C(=O)c3ccc4c(c3)C(=O)N(*)C4=O)cc2C1=O (repeat unit) | 70.00 |
| *OC(COC(=O)c1cccc(-c2ccc(C(*)=O)cc2)c1)COc1ccc(/N=N/c2ccc(C#N)cc2)cc1 (repeat unit) | 135.00 |
| *Oc1ccc(C2(c3ccc(OC(*)=O)c(Cl)c3)CC3CCC2C3)cc1Cl (repeat unit) | 200.00 |
| *Oc1ccc(CC(NC(=O)CCc2ccc(OC(=O)COCCOCC(*)=O)cc2)C(=O)OCCCCCC)cc1 (repeat unit) | 28.00 |
| *CC(S*)c1ccccc1 (repeat unit) | -2.50 |
| *CCCCCC(*)CCC (repeat unit) | -68.00 |
| *C(=O)OCCCCCCCCCOC(=O)c1ccc(NC(=O)c2ccc(N3C(=O)c4ccc(*)cc4C3=O)cc2)cc1 (repeat unit) | 100.00 |

Reference: the PolyMetriX glass transition set
